Measurements taken from US20120040951A1, “HETEROARYL COMPOUNDS USEFUL AS RAF KINASE INHIBITORS” (priority 2008, published 2012).
Read-outs that look alike come from different tables or passages of the source.

Legend:
[1] = tested on: phospho-ERK in melanoma derived WM-266-4 cells; test: Mechanistic cellular assay for Raf kinase activity (phospho-ERK, Bio-Plex); type: cell-based; conditions: treated 1-2 hr at 37° C., serum free medium, read-out: pERK EC50
How it was run: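 WM-266-4 melanoma cells (wild-type/V600D BRaf) grown overnight in 10% FBS RPMI, then treated 1–2 h at 37 °C in serum-free RPMI with eight 3-fold dilutions of compound (from 5 mM DMSO stock, 1000× dilution). Lysate phospho-ERK1,2 quantified by Bio-Plex bead immunoassay.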

V599E Raf = V599E Raf (Homo sapiens, UniProt P15056, V600E); test: Biochemical FRET assay, mutant Raf (phosphorylation of MEK); conditions: 0.125 nM V599E Raf, 100 nM biotin-MEK, 25 μM ATP, read-out: Raf (mut) inhibition
Protocol: (1) Biochemical FRET Assay […]
Inhibitors were diluted 4-fold in 100% DMSO and added to a final concentration of 10 μM to 40 μM to a solution containing 100 nM biotin-MEK, 0.125 nM V599E Raf in 50 mM HEPES, pH 7.4, 60 mM NaCl, 3 mM MgCl2, 2 mM DTT, 0.25 mM MnCl2, 0.01% BSA, and 0.01% Tween-20 and incubated for 20 minutes at room temperature. The kinase reaction was started by the addition of 25 μM ATP to a final volume of 45 μl and allowed to progress for 60 minutes. The reaction was stopped with 15 mM EDTA and 20 nM Streptavidin-APC, 2.5 nM Polyclonal anti p-MEK1/2 (Ser217/221), 2.5 nM Eu-labeled anti-rabbit IgG were added in Lance detection buffer and 5% Superblock in PBS for a final volume of 100 μl. The detection reaction was incubated for 90 minutes at room temperature and then read on an Analyst plate reader using standard TR-FRET (time resolved fluorescence resonance energy transfer) settings for Eu and APC.
Compounds having an activity designated as “A” provided an IC50≦100 nM; compounds having an activity designated as “B” provided an IC50 of 100-1000 nM; and compounds having an activity designated as “C” provided an IC50 of 1000-10,000 nM.

Chain of V599E Raf (P15056 whole entry V600E): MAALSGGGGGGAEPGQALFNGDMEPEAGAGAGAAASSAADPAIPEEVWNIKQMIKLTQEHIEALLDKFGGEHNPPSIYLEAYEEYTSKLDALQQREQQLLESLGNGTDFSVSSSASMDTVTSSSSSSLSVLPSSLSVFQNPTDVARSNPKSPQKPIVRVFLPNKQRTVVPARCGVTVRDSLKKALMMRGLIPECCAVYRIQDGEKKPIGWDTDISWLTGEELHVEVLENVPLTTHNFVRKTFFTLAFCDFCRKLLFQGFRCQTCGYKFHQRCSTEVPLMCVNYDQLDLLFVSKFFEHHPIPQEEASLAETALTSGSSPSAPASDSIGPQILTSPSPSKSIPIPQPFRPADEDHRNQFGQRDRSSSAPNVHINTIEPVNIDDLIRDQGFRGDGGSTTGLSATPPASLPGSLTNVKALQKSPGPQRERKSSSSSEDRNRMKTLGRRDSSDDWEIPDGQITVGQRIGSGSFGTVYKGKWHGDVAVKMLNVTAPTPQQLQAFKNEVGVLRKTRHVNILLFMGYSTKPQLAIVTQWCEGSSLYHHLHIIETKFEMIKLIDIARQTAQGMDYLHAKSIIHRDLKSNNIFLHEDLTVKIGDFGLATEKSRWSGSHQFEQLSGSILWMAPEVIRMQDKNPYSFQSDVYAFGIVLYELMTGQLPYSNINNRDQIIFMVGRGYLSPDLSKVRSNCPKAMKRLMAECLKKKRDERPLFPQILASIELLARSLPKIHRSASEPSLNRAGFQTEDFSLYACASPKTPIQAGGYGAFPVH

Compound | EC50 [1] | IC50 (V599E Raf) | EC50 ([1]; Homo sapiens)
CC(NC(=O)c1cc2c(cn1)ncn2C)c1cnc(Nc2ccc(C(F)(F)F)cn2)cn1 (stereo not shown) [Example 264] | 100 to 1000 nM | ≤ 100 nM | 
CC(NC(=O)c1ccc2ncccc2c1)c1cnc(Nc2ccc(C(F)(F)F)cc2)s1 (stereo not shown) [Example 72] |  | ≤ 100 nM | 1000 to 10000 nM
CC(NC(=O)c1cnn2ccccc12)c1ncc(C(=O)Nc2cc(C(F)(F)F)c(Cl)cn2)s1 (stereo not shown) [Example 223] |  | 100 to 1000 nM | ≤ 100 nM
CC(NC(=O)c1cc2c(cn1)nc(N)n2C)c1cnc(Nc2ccc(C(F)(F)F)cc2)s1 (stereo not shown) [Example 199] |  | ≤ 100 nM | ≤ 100 nM
C[C@@H](NC(=O)c1cc2c(cn1)ncn2C1CN(S(C)(=O)=O)C1)c1cnc(Nc2ccc(C(F)(F)F)cc2)s1 [Example 346] |  | ≤ 100 nM | ≤ 100 nM
CCN1CC(n2cnc3cnc(C(=O)N[C@H](C)c4cnc(Nc5ccc(C(F)(F)F)cc5)cn4)cc32)C1 (stereo in doubt) [Example 180] |  | ≤ 100 nM | 100 to 1000 nM
COCCOc1cc(C(F)(F)F)ccc1Nc1ncc(C(C)NC(=O)c2cc3c(cn2)ncn3C)s1 (stereo not shown) [Example 282] |  | ≤ 100 nM | 100 to 1000 nM
CC(NC(=O)c1cc2c(cn1)ncn2C)c1cnc(Nc2ccc(C(F)(F)F)cc2Cl)s1 (stereo not shown) [Example 245] |  | ≤ 100 nM | ≤ 100 nM
CC(=O)N1CCn2c(C(=O)N[C@H](C)c3ncc(C(=O)Nc4cc(C(F)(F)F)c(Cl)cn4)s3)cnc2C1 [Example 316] |  | 100 to 1000 nM | 1000 to 10000 nM
CC(NC(=O)c1cc2c(cn1)ncn2C)c1cnc(Nc2ccc(C(F)(F)F)cc2)cn1 (stereo not shown) [Example 35] |  | ≤ 100 nM | ≤ 100 nM
Cc1ccc(NC(=O)c2cc([C@@H](C)NC(=O)c3cnn4ccccc34)no2)cc1C(F)(F)F [Example 218] |  | ≤ 100 nM | ≤ 100 nM
CC(NC(=O)c1cc2c(cn1)ncn2C)c1cnc(Nc2cc(C#N)cc(C(C)(C)C)c2)s1 (stereo not shown) [Example 350] |  | ≤ 100 nM | 1000 to 10000 nM
CC(NC(=O)c1cn2c(Cl)cnc2cn1)c1cnc(Nc2ccc(C(F)(F)F)cc2)s1 (stereo not shown) [Example 299] |  | ≤ 100 nM | 100 to 1000 nM
C[C@@H](NC(=O)c1cn(-c2ccncc2)cn1)c1ncc(C(=O)Nc2cc(C(F)(F)F)c(Cl)cn2)s1 [Example 148] |  | ≤ 100 nM | 1000 to 10000 nM
C[C@@H](NC(=O)c1ccc2[nH]ccc2c1)c1ncc(C(=O)Nc2cc(C(F)(F)F)c(Cl)cn2)s1 [Example 56] |  | ≤ 100 nM | 100 to 1000 nM
CC(NC(=O)c1ccc2ncsc2c1)c1cnc(Nc2ccc(C(F)(F)F)cc2)s1 (stereo not shown) [Example 74] |  | ≤ 100 nM | 1000 to 10000 nM
CC(NC(=O)c1cc2c(cn1)ncn2C1CCC1)c1cnc(Nc2ccc(C(F)(F)F)cc2)cn1 (stereo not shown) [Example 175] |  | ≤ 100 nM | ≤ 100 nM
CC(NC(=O)c1ncc2ncn(C)c2n1)c1cnc(Nc2ccc(C(F)(F)F)cc2)s1 (stereo not shown) [Example 190] |  | ≤ 100 nM | 100 to 1000 nM
CC(NC(=O)c1cc2c(cn1)ncn2C1CNC1)c1cnc(Nc2ccc(C(F)(F)F)cc2)cn1 (stereo not shown) [Example 179] |  | ≤ 100 nM | 100 to 1000 nM
CC(NC(=O)c1cc2c(cn1)ncn2C1CCC1)c1cnc(Nc2cnc(C(C)(C)C)nc2)s1 (stereo not shown) [Example 286] |  | ≤ 100 nM | ≤ 100 nM
C[C@@H](NC(=O)c1cnn2ccccc12)c1cc(C(=O)Nc2ccc(Cl)c(C(F)(F)F)c2)on1 [Example 220] |  | ≤ 100 nM | 100 to 1000 nM
CC(NC(=O)c1cc2c(cn1)ncn2C)c1cnc(Nc2ccc(C(F)(F)F)cn2)cn1 (stereo not shown) [Example 262] |  | ≤ 100 nM | 100 to 1000 nM
C[C@@H](NC(=O)c1nc(NC(=O)OC(C)(C)C)cn1C)c1ncc(C(=O)Nc2cc(C(F)(F)F)c(Cl)cn2)s1 [Example 138] |  | 100 to 1000 nM | 1000 to 10000 nM
CC(NC(=O)c1cnn(C)c1N)c1cnc(Nc2ccc(C(F)(F)F)cc2)s1 (stereo not shown) [Example 108] |  | ≤ 100 nM | 100 to 1000 nM
CNCc1c(C(=O)N[C@H](C)c2ncc(C(=O)Nc3cc(C(F)(F)F)c(Cl)cn3)s2)cnn1C [Example 129] |  | 1000 to 10000 nM | 1000 to 10000 nM
Cc1cc2nc(NC(=O)c3cc([C@@H](C)NC(=O)c4cnn5ccccc45)no3)[nH]c2cc1C [Example 219] |  | 100 to 1000 nM | 100 to 1000 nM
